This assay concerns the target T1, Human GO (Homo sapiens, UniProt Q9UJM8).
T1 construct: purchased Novus Biologicals NBP1-72412
T1 sequence (Q9UJM8 1-370): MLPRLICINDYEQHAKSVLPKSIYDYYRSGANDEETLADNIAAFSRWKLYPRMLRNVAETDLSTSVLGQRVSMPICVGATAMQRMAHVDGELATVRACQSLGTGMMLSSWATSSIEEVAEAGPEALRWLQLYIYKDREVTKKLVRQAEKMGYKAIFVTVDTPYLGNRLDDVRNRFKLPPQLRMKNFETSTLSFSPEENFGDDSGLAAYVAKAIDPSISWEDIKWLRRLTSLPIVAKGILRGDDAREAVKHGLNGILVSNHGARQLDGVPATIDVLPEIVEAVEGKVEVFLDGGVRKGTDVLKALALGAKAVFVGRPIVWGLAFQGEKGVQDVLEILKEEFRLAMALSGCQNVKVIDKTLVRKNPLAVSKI
In words: GO enzymatic assay (coupled fluorescence/HRP assay, glycolate substrate). The format is biochemical. The method in brief:
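Human GO incubated with glycolate substrate in 50 mM potassium phosphate, pH 7, with varying inhibitor concentrations. Activity read by coupled HRP fluorescence. IC50 taken from variable-slope sigmoidal dose-response fits of percent inhibition relative to DMSO control.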

Setting [1] is: Table 1, read-out: Range (range of IC50 values calculated from the enzymatic assays).

Read-outs that look alike come from different tables or passages of the source.

For `O=C(O)c1[nH]nnc1Oc1ccc2ncccc2c1` [Compound 120, 4-(quinolin-6-yloxy)-1H-1,2,3-triazole-5-carboxylic acid 2,2,2-trifluoroacetate], the IC50 under setting [1] is 0.1 to 1 µM.

As for `O=C(O)c1[nH]nnc1Oc1ccc2cnccc2c1` [Compound 121, 4-(isoquinolin-6-yloxy)-1H-1,2,3-triazole-5-carboxylic acid 2,2,2-trifluoroacetate], the concentration for half-maximal inhibition (IC50) under setting [1] was 0.1 to 1 µM.

On to `O=C(O)c1[nH]nnc1Oc1ccc(-c2ccc3ncccc3c2)cc1` [Compound 122, 5-(4-(quinolin-6-yl)phenoxy)-1H-1,2,3-triazole-4-carboxylic acid], for which, under setting [1], the IC50 is below 0.1 µM.

Take `O=C(O)c1[nH]nnc1-c1csc(-c2ccc(Cl)c(Cl)c2)n1` [Compound 124, 4-(2-(3,4-dichlorophenyl)thiazol-4-yl)-1H-1,2,3-triazole-5-carboxylic acid]: the 50% inhibitory concentration (IC50) under setting [1] was below 0.1 µM.

The molecule `O=C(O)c1[nH]nnc1-c1ccc(Cl)c(Cl)c1` [Compound 125, 4-(3,4-dichlorophenyl)-1H-1,2,3-triazole-5-carboxylic acid] had an IC50 below 0.1 µM.

In the case of `O=C(O)c1[nH]nnc1-c1ccc(-c2ccc(Cl)cc2)cc1` [Compound 126, 2,2,2-trifluoroacetate], the IC50 was below 0.1 µM.

In the case of `O=C(O)c1[nH]nnc1-c1ccc(Oc2ccc(Cl)cc2)cc1` [Compound 127, 4-(4-(4-chlorophenoxy)phenyl)-1H-1,2,3-triazole-5-carboxylic acid], the IC50 under setting [1] was below 0.1 µM.

`O=C(O)c1[nH]nnc1-c1ccc(-c2ccc(OC(F)(F)F)cc2)cc1` [Compound 128]: the IC50 is 0.1 to 1 µM.

Regarding `O=C(O)c1[nH]nnc1-c1cccc(-c2ccc(Cl)c(Cl)c2)c1` [Compound 129, 4-(3′,4′-dichloro-[1,1′-biphenyl]-3-yl)-1H-1,2,3-triazole-5-carboxylic acid], under setting [1], the IC50 is below 0.1 µM.

`O=C(O)c1[nH]nnc1-c1ccc(-c2ccc(Cl)cc2)c(Cl)c1` [Compound 130, 2,2,2-trifluoroacetate] displayed an IC50 below 0.1 µM.

In the case of `O=C(O)c1[nH]nnc1-c1cccc(Oc2ccc(Cl)c(Cl)c2)c1` [Compound 131, 4-(3-(3,4-dichlorophenoxy)phenyl)-1H-1,2,3-triazole-5-carboxylic acid 2,2,2-trifluoroacetate], the half-maximal inhibitory concentration (IC50) under setting [1] was below 0.1 µM.

On to `O=C(O)c1[nH]nnc1-c1ccc2cc(Cl)ccc2n1` [Compound 132, 4-(6-chloroquinolin-2-yl)-1H-1,2,3-triazole-5-carboxylic acid 2,2,2-trifluoroacetate], for which, under setting [1], the IC50 is below 0.1 µM.

As for `O=C(O)c1[nH]nnc1-c1ccc2cc(Cl)ccc2c1` [Compound 133, 4-(6-chloronaphthalen-2-yl)-1H-1,2,3-triazole-5-carboxylic acid], the 50% inhibitory concentration (IC50) was below 0.1 µM.

Consider `O=C(O)c1[nH]nnc1-c1nccc2ccc(Cl)cc12` [Compound 134, 4-(7-chloroisoquinolin-1-yl)-1H-1,2,3-triazole-5-carboxylic acid], for which the IC50 under setting [1] was above 10 µM.

Take `O=C(O)c1[nH]nnc1-c1cccc(OC(F)(F)F)c1` [Compound 135, 4-(3-(trifluoromethoxy)phenyl)-1H-1,2,3-triazole-5-carboxylic acid]: the IC50 was below 0.1 µM.

As to `O=C(O)c1[nH]nnc1-c1ccc(OC(F)(F)F)cc1` [Compound 136, 4-(4-(trifluoromethoxy)phenyl)-1H-1,2,3-triazole-5-carboxylic acid], under setting [1], the half-maximal inhibitory concentration (IC50) is 0.1 to 1 µM.

With `O=C(O)c1[nH]nnc1-c1ccc(OCC2CCCC2)cc1` [Compound 137, 4-(4-(cyclopentylmethoxy)phenyl)-1H-1,2,3-triazole-5-carboxylic acid], the IC50 under setting [1] is 0.1 to 1 µM.

As for `O=C(O)c1[nH]nnc1-c1ccc(OC2CCCC2)cc1` [Compound 138, 4-(4-(cyclopentyloxy)phenyl)-1H-1,2,3-triazole-5-carboxylic acid], the IC50 under setting [1] is 0.1 to 1 µM.

As to `O=C(O)c1[nH]nnc1-c1ccc(-c2ccc(OC(F)(F)F)cc2)c(Cl)c1` [Compound 139, 4-(2-chloro-4′-(trifluoromethoxy)-[1,1′-biphenyl]-4-yl)-1H-1,2,3-triazole-5-carboxylic acid 2,2,2-trifluoroacetate], the IC50 under setting [1] is 0.1 to 1 µM.

`O=C(O)c1[nH]nnc1C1=Cc2ccccc2CC1` [Compound 140, 4-(3,4-dihydronaphthalen-2-yl)-1H-1,2,3-triazole-5-carboxylic acid 2,2,2-trifluoroacetate]: under setting [1], the half-inhibitory concentration (IC50) was below 0.1 µM.

As for `O=C(O)c1[nH]nnc1C1CCc2ccccc2C1` (centres unmarked) [Compound 141, 4-(1,2,3,4-tetrahydronaphthalen-2-yl)-1H-1,2,3-triazole-5-carboxylic acid 2,2,2-trifluoroacetate], the IC50 under setting [1] was 0.1 to 1 µM.

Regarding `CC(C)N1CCc2cc(-c3nn[nH]c3C(=O)O)ccc2C1` [Compound 143, 4-(2-isopropyl-1,2,3,4-tetrahydroisoquinolin-6-yl)-1H-1,2,3-triazole-5-carboxylic acid 2,2,2-trifluoroacetate], the IC50 under setting [1] is above 10 µM.

With `CC(C)N1CCc2ccc(-c3nn[nH]c3C(=O)O)cc2C1` [Compound 144, 4-(2-isopropyl-1,2,3,4-tetrahydroisoquinolin-7-yl)-1H-1,2,3-triazole-5-carboxylic acid 2,2,2-trifluoroacetate], under setting [1], the IC50 was above 10 µM.

As to `O=C(O)c1[nH]nnc1-c1ccc(OC(F)(F)F)cn1` [Compound 145, 4-(5-(trifluoromethoxy)pyridin-2-yl)-1H-1,2,3-triazole-5-carboxylic acid 2,2,2-trifluoroacetate], the IC50 under setting [1] is 1 to 10 µM.

In the case of `O=C(O)c1[nH]nnc1C(=O)N1CCC(c2ccc(Cl)cc2)C1` (centres unmarked) [Compound 146, 4-(3-(4-chlorophenyl)pyrrolidine-1-carbonyl)-1H-1,2,3-triazole-5-carboxylic acid], the 50% inhibitory concentration (IC50) under setting [1] is 1 to 10 µM.

In the case of `O=C(O)c1[nH]nnc1C(=O)N1Cc2ccc(Cl)cc2C1` [Compound 147, 4-(5-chloroisoindoline-2-carbonyl)-1H-1,2,3-triazole-5-carboxylic acid], the IC50 under setting [1] is 1 to 10 µM.

With `O=C(O)c1[nH]nnc1C(=O)N1CCc2cc(Cl)ccc21` [Compound 148, 4-(5-chloroindoline-1-carbonyl)-1H-1,2,3-triazole-5-carboxylic acid], the half-maximal inhibitory concentration (IC50) under setting [1] was below 0.1 µM.

With `O=C(O)c1[nH]nnc1C(=O)N1CCC(c2ccc(Cl)cc2Cl)C1` (centres unmarked) [Compound 149, 4-(3-(2,4-dichlorophenyl)pyrrolidine-1-carbonyl)-1H-1,2,3-triazole-5-carboxylic acid], the IC50 under setting [1] is 1 to 10 µM.

For the molecule `O=C(O)c1[nH]nnc1C(=O)N1CCC(c2ccc(Cl)c(Cl)c2)C1` (centres unmarked) [Compound 150, 4-(3-(3,4-dichlorophenyl)pyrrolidine-1-carbonyl)-1H-1,2,3-triazole-5-carboxylic acid], the IC50 under setting [1] is 1 to 10 µM.

For `O=C(O)c1[nH]nnc1SCc1ccc(Cl)c2ccccc12` [Compound 152, 4-(((4-chloronaphthalen-1-yl)methyl)thio)-1H-1,2,3-triazole-5-carboxylic acid 2,2,2-trifluoroacetate], the 50% inhibitory concentration (IC50) under setting [1] was below 0.1 µM.

Turning to `O=C(O)c1[nH]nnc1Nc1cc(Cl)cc(Cl)c1` [Compound 153, 4-((3,5-dichlorophenyl)amino)-1H-1,2,3-triazole-5-carboxylic acid], the IC50 under setting [1] is 0.1 to 1 µM.

Turning to `O=C(O)c1[nH]nnc1Nc1cc(Cl)ccc1Cl` [Compound 154, 4-((2,5-dichlorophenyl)amino)-1H-1,2,3-triazole-5-carboxylic acid 2,2,2-trifluoroacetate], the IC50 under setting [1] is 1 to 10 µM.

The values are drawn from US11384055B2 (BIOMARIN PHARMACEUTICAL INC., priority 2017, dated 2022).
